Laboratory results as given in paper PMC6150413 (Molecules : A Journal of Synthetic Chemistry and Natural …, 2017).
Where two headings read alike, the source gives them in different places. Ends that are not written are not given here. Peptide text beside a SMILES is read from it.

Columns and labels:
[1] = parameters: method as in PMID 9038346; details: salt from 50 to 125 mmol/L; cited from earlier work
E. coli ATCC 25922 = system: E. coli ATCC 25922
Protocol: (§1) The antimicrobial activities of VIP and its analogues were tested against S. aureus ATCC 25923 and E. coli ATCC 25922 according to the method reported by Wani et al. with slight modification. The final peptide concentrations ranged from 0.5 to 256 μM. The tests were performed in triplicate using 4 replicates for each experiment. In addition, S. aureus ATCC 25923 and E. coli ATCC 25922 (2 × 10^6 CFU/mL) were treated with natural VIP and VIP8 at MIC for 2 h. […] The haemolytic activity of VIP and VIP derivatives were measured using porcine erythrocytes according to previous method. MTT (3-[4,5 dimethylthiozol-2-yl]-2,5-diphenyltetrazolium bromide) was used to determine the cytotoxicity of VIP and its analogue on porcine intestinal epithelial cells IPEC-J2. Stable experiments were conducted with reference to the literature with slightly changes. First, the pH of the mediums was adjusted to acidic (pH 4.0, pH 5.0, and pH 6.0) and basic (pH 8.0, pH 9.0, and pH 10.0) conditions. To investigate the effects of ion strength, the bacterial mediums were supplemented with different concentrations of NaCl (20 mM, 60 mM, and 180 mM) or MgCl2 (1 mM, 25 mM, and 50 mM). Then, bacteria were incubated with VIP, VIP analogues 2 and 8, respectively. After 3 h of incubation, bacterial viability was measured with a Synergy HT multimode reader (BioTek, Winooski, VT, USA) at 600 nm.
(§2) Both the agar diffusion test and modified broth microdilution method were used to evaluate the antimicrobial activity of recombinant expressed VIP8. For the Oxford cup agar diffusion, the sample was added to an Oxford cup, which was then placed on a Mueller-Hinton agar plate containing 1 × 10^5 colony-forming units of S. aureus […]. Chemically-synthesized VIP8 and ampicillin were used as the positive control. The minimal inhibition concentration was determined by the method reported by Wani et al..

S. aureus ATCC 25923 = system: S. aureus ATCC 25923
Protocol: as §1, §2

S. aureus = details: cited from earlier work
E. coli = details: cited from earlier work
P. aeruginosa = details: cited from earlier work
[2] = E. coli ATCC 25922, peptide 0.5 to 256 μM, triplicate, 4 replicates each, Table 2
[3] = S. aureus ATCC 25923, peptide 0.5 to 256 μM, triplicate, 4 replicates each, Table 2

Compound | MBC (minimum bactericidal concentration) (E. coli ATCC 25922; ATCC 25922, 2 h) | MIC (minimum inhibitory concentration) (E. coli ATCC 25922; ATCC 25922, 2 h) | MBC (minimum bactericidal concentration) (S. aureus ATCC 25923; ATCC 25923, 2 h) | MIC (minimum inhibitory concentration) (S. aureus ATCC 25923; ATCC 25923, 2 h) | other results
human β-defensin 1 (DHYNCVSSGGQCLYSACPIFTKIQGTCYRGKAKCCK; ends and bridges not checked; cysteine pairing not given here; UniProt P60022 33-68, looked up) [hBD-1, human β-defensin quoted from the literature] |  |  |  |  | Activity remaining at raised salt concentration [1]: 12%
CC[C@H](C)[C@H](NC(=O)CNC(=O)[C@H](CCC(=O)O)NC(=O)[C@H](CO)NC(=O)[C@@H](NC(=O)[C@H](CCCNC(=N)N)NC(=O)[C@H](CCCCN)NC(=O)[C@H](CCCCN)NC(=O)[C@H](C)NC(=O)[C@H](CO)NC(=O)[C@H](CC(N)=O)NC(=O)[C@H](CCC(=O)O)NC(=O)[C@H](CC(C)C)NC(=O)[C@H](CCCCN)NC(=O)[C@H](CCCCN)NC(=O)[C@H](C)NC(=O)[C@@H](NC(=O)[C@H](CCCCN)NC(=O)[C@H](CO)NC(=O)[C@H](CC(C)C)NC(=O)[C@H](Cc1c[nH]c2ccccc12)NC(=O)[C@@H](N)CO)[C@@H](C)O)[C@@H](C)CC)C(=O)N[C@@H](C)C(=O)N[C@H](C(=O)N[C@@H](C)C(=O)N[C@H](C(=O)N[C@@H](CCC(N)=O)C(=O)NCC(=O)NCC(=O)N1CCC[C@H]1C(=O)N[C@@H](CCCNC(=N)N)C(=O)O)[C@@H](C)CC)[C@@H](C)CC [Cecropin P1, reference compound] (H-SWLSKTAKKLENSAKKRISEGIAIAIQGGPR-OH) | 4 µM | 2 µM | 8 µM | 8 µM | MIC (minimal inhibitory concentration) (E. coli ATCC 25922; ATCC 25922, 2 h): 2 µM; MIC (minimal inhibitory concentration) (S. aureus ATCC 25923; ATCC 25923, 2 h): 8 µM
CC[C@H](C)[C@H](NC(=O)[C@H](C)NC(=O)[C@H](C)NC(=O)[C@H](CC(C)C)NC(=O)[C@H](Cc1ccc(O)cc1)NC(=O)[C@H](CCCNC(=N)N)NC(=O)[C@H](CCCNC(=N)N)NC(=O)[C@@H](NC(=O)[C@H](C)NC(=O)[C@H](CC(C)C)NC(=O)[C@H](CCC(N)=O)NC(=O)[C@H](CCCNC(=N)N)NC(=O)[C@H](CCCNC(=N)N)NC(=O)[C@H](CC(C)C)NC(=O)[C@H](CCCNC(=N)N)NC(=O)[C@@H](NC(=O)[C@H](Cc1ccc(O)cc1)NC(=O)[C@H](CC(N)=O)NC(=O)[C@H](C)NC(=O)[C@@H](NC(=O)[C@@H](N)Cc1ccccc1)[C@@H](C)O)[C@@H](C)O)C(C)C)C(=O)N[C@@H](CC(C)C)C(=O)NCC(=O)N[C@@H](CCCNC(=N)N)C(=O)N[C@@H](CCCNC(=N)N)C(=O)O [VIP8] (H-FTANYTRLRRQLAVRRYLAAILGRR-OH) | 4 µM | 2 µM | 4 µM | 2 µM | Cytotoxicity (in words) (3T3-L1 cells): no cytotoxicity
CC[C@H](C)[C@H](NC(=O)[C@H](CO)NC(=O)[C@H](CC(N)=O)NC(=O)[C@H](CC(C)C)NC(=O)[C@H](CO)NC(=O)[C@H](CCCCN)NC(=O)[C@H](CCCCN)NC(=O)[C@@H](NC(=O)[C@H](C)NC(=O)[C@H](CCSC)NC(=O)[C@H](CCC(N)=O)NC(=O)[C@H](CCCCN)NC(=O)[C@H](CCCNC(=N)N)NC(=O)[C@H](CC(C)C)NC(=O)[C@H](CCCNC(=N)N)NC(=O)[C@@H](NC(=O)[C@H](CO)NC(=O)[C@H](CC(N)=O)NC(=O)[C@H](CC(=O)O)NC(=O)[C@@H](NC(=O)[C@H](Cc1ccccc1)NC(=O)[C@@H](NC(=O)[C@H](C)NC(=O)[C@H](CC(=O)O)NC(=O)[C@H](CO)NC(=O)[C@@H](N)Cc1c[nH]cn1)C(C)C)[C@@H](C)O)[C@@H](C)O)C(C)C)C(=O)N[C@@H](CC(C)C)C(=O)N[C@@H](CC(N)=O)C(=O)O [VIP3] (H-HSDAVFTDNSTRLRKQMAVKKSLNSILN-OH) |  |  |  |  | MBC (minimum bactericidal concentration) (E. coli ATCC 25922; [2]): >256 µM; MIC (minimum inhibitory concentration) (E. coli ATCC 25922; [2]): >256 µM; MBC (minimum bactericidal concentration) (S. aureus ATCC 25923; [3]): >256 µM; MIC (minimum inhibitory concentration) (S. aureus ATCC 25923; [3]): >256 µM
CC[C@H](C)[C@H](NC(=O)[C@H](CO)NC(=O)[C@H](CC(N)=O)NC(=O)[C@H](CC(C)C)NC(=O)[C@H](CO)NC(=O)[C@H](CCCCN)NC(=O)[C@H](CCCCN)NC(=O)[C@@H](NC(=O)[C@H](C)NC(=O)[C@H](CCSC)NC(=O)[C@H](CCC(N)=O)NC(=O)[C@H](CCCCN)NC(=O)[C@H](CCCNC(=N)N)NC(=O)[C@H](CC(C)C)NC(=O)[C@H](CCCNC(=N)N)NC(=O)[C@@H](NC(=O)[C@H](CO)NC(=O)[C@H](CC(N)=O)NC(=O)[C@H](CC(=O)O)NC(=O)[C@@H](NC(=O)[C@H](Cc1ccccc1)NC(=O)[C@@H](NC(=O)[C@H](C)NC(=O)[C@H](CC(=O)O)NC(=O)[C@H](CO)NC(=O)[C@@H](N)Cc1c[nH]cn1)C(C)C)[C@@H](C)O)[C@@H](C)O)C(C)C)C(=O)N[C@@H](CC(C)C)C(=O)N[C@H](C(=O)O)[C@@H](C)O [VIP6] (H-HSDAVFTDNSTRLRKQMAVKKSLNSILT-OH) | >256 µM | >256 µM | >256 µM | >256 µM | 
human β-defensin 4 (EFELDRICGYGTARCRKKCRSQEYRIGRCPNTYACCLRKWDESLLNRTKP; ends and bridges not checked; cysteine pairing not given here; UniProt Q8WTQ1 23-72, looked up) [hBD-4, human β-defensin quoted from the literature] |  |  |  |  | Antimicrobial activity at high concentrations of NaCl (S. aureus): attenuated; Antimicrobial activity at high concentrations of NaCl (E. coli): attenuated; Antimicrobial activity at high concentrations of NaCl (P. aeruginosa): attenuated
CC[C@H](C)[C@H](NC(=O)[C@H](CO)NC(=O)[C@H](CC(N)=O)NC(=O)[C@H](CC(C)C)NC(=O)[C@H](Cc1ccc(O)cc1)NC(=O)[C@H](CCCCN)NC(=O)[C@H](CCCCN)NC(=O)[C@@H](NC(=O)[C@H](C)NC(=O)[C@H](CCSC)NC(=O)[C@H](CCC(N)=O)NC(=O)[C@H](CCCCN)NC(=O)[C@H](CCCNC(=N)N)NC(=O)[C@H](CC(C)C)NC(=O)[C@H](CCCNC(=N)N)NC(=O)[C@@H](NC(=O)[C@H](Cc1ccc(O)cc1)NC(=O)[C@H](CC(N)=O)NC(=O)[C@H](CCCCN)NC(=O)[C@@H](NC(=O)[C@H](Cc1ccccc1)NC(=O)[C@@H](NC(=O)[C@H](C)NC(=O)[C@H](CCCCN)NC(=O)[C@H](CO)NC(=O)[C@@H](N)Cc1c[nH]cn1)C(C)C)[C@@H](C)O)[C@@H](C)O)C(C)C)C(=O)N[C@@H](CC(C)C)C(=O)N[C@@H](CC(N)=O)C(=O)O [VIP2] (H-HSKAVFTKNYTRLRKQMAVKKYLNSILN-OH) | 32 µM | 16 µM | 128 µM | 64 µM | Cytotoxicity (in words) (3T3-L1 cells): no cytotoxicity
